Results published in US20210000986A1, “INCLUSION COMPLEXES SUITABLE FOR USE AS A HISTOTRIPSY AGENT” (T.C ISTANBUL MEDIPOL ÜNIVERSITESI, priority 2018, published 2021).

Experiments:
[1] = Dynamic light scattering (DLS) size testing; type: physicochemical
Text: The size of the complex plays an important role in determining the threshold for histotripsy. Small size particles are more easily injected and they accumulate highly in tumor tissue. […] The results obtained in the DLS tests are shown as a graph in FIG. 2. Herein BCD is beta-cyclodextrin; MBCD is methylated beta-cyclodextrin and MIC refers to the inclusion complex of methylated beta-cyclodextrin and perfluorohexane.

[2] = system: kidney HEK-293T cells; type: cell-based
Procedure: The cell viability test is important to determine how the methylated beta-cyclodextrin perfluorohexane inclusion complex interacts with cells in the body.
Inclusion complexes according to the invention were tested using kidney HEK-293T cells from the reticulo-endothelial system organs responsible for cleansing blood in the body and removing various particles and antigens from blood flow and forming inflammatory mediators against immunological stimuli.
For this purpose, beta-cyclodextrin (BCD), methylated beta-cyclodextrin (MCD) and methylated beta-cyclodextrin and perfluorohexane inclusion complex (MIC) solutions at a concentration of 0.1 mg/mL, 0.5 mg/mL and 1 mg/mL were prepared. In addition, perfluorohexane (PFH) at amounts of 0.1 μL, 0.13 μL, 0.15 μL were also tested on the same cells. The amount of perfluorohexane tested was based on the amount of perfluorohexane in 1 mg/mL MIC. It was determined that in 1 mg/mL MIC there is 0.15 μL of perfluorohexane.

| size (DLS) [1] [nm] | Molecule | toxicity (conclusion from cell viability) [2] | cell viability ([2]; human, 0.15 μL) [%] |
| --- | --- | --- | --- |
| 16.42 | OC[C@H]1O[C@@H]2O[C@H]3[C@H](O)[C@@H](O)[C@@H](O[C@H]4[C@H](O)[C@@H](O)[C@@H](O[C@H]5[C@H](O)[C@@H](O)[C@@H](O[C@H]6[C@H](O)[C@@H](O)[C@@H](O[C@H]7[C@H](O)[C@@H](O)[C@@H](O[C@H]8[C@H](O)[C@@H](O)[C@@H](O[C@H]1[C@H](O)[C@H]2O)O[C@@H]8CO)O[C@@H]7CO)O[C@@H]6CO)O[C@@H]5CO)O[C@@H]4CO)O[C@@H]3CO [beta-cyclodextrin] |  |  |
|  | FC(F)(F)C(F)(F)C(F)(F)C(F)(F)C(F)(F)C(F)(F)F [perfluorohexane] | not toxic | 89 |
| 19.55 | methylated beta-cyclodextrin |  |  |
